Experimental findings from the kinase profiling compilation of Christmann-Franck et al. (2016) are described below.

For orientation: residual activity means the signal under treatment as a percentage of the control signal.

Chain of MERTK (human) (Q12866 whole entry, looked up): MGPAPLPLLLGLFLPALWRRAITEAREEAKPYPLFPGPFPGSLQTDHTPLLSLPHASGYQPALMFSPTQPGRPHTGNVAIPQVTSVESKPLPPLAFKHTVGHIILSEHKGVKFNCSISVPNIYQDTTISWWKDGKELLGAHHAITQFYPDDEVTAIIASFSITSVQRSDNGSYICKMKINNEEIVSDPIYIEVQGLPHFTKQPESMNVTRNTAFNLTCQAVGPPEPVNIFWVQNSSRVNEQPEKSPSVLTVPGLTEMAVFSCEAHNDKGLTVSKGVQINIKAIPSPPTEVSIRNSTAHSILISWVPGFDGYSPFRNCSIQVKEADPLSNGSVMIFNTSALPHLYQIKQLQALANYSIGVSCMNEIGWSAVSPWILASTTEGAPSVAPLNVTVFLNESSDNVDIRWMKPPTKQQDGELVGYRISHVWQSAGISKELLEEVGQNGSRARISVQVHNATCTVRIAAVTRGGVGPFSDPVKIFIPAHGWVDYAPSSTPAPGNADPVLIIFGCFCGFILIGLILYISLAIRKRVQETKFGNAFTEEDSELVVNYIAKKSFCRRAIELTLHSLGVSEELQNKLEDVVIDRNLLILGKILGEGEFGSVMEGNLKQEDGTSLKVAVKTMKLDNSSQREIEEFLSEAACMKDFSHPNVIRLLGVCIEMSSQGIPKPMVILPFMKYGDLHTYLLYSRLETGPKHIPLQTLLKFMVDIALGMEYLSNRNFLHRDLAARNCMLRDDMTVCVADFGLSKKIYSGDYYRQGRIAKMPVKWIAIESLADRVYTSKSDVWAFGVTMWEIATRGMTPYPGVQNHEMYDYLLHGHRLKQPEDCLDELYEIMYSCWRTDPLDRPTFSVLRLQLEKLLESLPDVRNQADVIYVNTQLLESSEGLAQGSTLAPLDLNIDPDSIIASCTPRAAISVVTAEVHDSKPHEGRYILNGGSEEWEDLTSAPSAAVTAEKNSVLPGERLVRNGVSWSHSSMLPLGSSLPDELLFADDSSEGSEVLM
Chain of NEK3 (human) (P51956 whole entry, looked up): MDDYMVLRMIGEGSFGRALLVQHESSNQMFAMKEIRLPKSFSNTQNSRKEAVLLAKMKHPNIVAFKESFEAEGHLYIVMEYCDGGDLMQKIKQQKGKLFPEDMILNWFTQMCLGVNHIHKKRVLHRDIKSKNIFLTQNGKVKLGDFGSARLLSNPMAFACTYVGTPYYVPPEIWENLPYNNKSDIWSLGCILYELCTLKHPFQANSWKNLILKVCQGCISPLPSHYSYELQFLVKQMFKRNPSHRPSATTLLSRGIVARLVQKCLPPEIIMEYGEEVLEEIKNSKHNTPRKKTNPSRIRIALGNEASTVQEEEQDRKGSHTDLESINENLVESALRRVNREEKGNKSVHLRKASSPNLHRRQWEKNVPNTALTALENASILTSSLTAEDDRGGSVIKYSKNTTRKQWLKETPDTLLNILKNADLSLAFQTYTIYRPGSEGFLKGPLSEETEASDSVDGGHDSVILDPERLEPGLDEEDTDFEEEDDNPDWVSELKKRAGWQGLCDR

The first assay concerns the target MERTK (human) (UniProt Q12866). Put plainly: radiometric filter-binding kinase assay, Kinase HotSpot. The following applies: compound 0.5 µM; ATP 10 µM.
In the case of `Cn1nc2c3c(cccc31)C(=O)c1ccccc1-2`, the residual activity was determined as 95.9%.
As for `COc1ccc(OC)c2c(=S)c3ccccc3[nH]c12`, the residual activity amounted to 86.7%.
Turning to `O=C1NC(=O)/C(=C\c2ccc3nccnc3c2)S1`, the residual activity came out at 92.1%.

For the next assay, the target named is NEK1 (human) (UniProt Q96PY6). Described as above. The following applies: compound 0.5 µM; ATP 10 µM.
In the case of `Cn1nc2c3c(cccc31)C(=O)c1ccccc1-2`, the residual activity was found to be 78.3%.
The same measure, in the same setting: next, `COc1ccc(OC)c2c(=S)c3ccccc3[nH]c12`: 102%.
For the compound `O=C1NC(=O)/C(=C\c2ccc3nccnc3c2)S1`, the residual activity is 73.6%.

For the next assay, the target named is CDC42BPB (human) (UniProt Q9Y5S2). Described as above. The following applies: compound 0.5 µM; ATP 10 µM.
`Cn1nc2c3c(cccc31)C(=O)c1ccccc1-2`: the residual activity was determined as 98%.
For the compound `COc1ccc(OC)c2c(=S)c3ccccc3[nH]c12`, the residual activity stood at 106%.
On the same count and under the same terms, next, `O=C1NC(=O)/C(=C\c2ccc3nccnc3c2)S1`: 91.3%.

A further assay deals with STK25 (human) (UniProt O00506). The description is as above. The following applies: compound 0.5 µM; ATP 10 µM.
Chain of STK25 (human) (O00506 whole entry, looked up): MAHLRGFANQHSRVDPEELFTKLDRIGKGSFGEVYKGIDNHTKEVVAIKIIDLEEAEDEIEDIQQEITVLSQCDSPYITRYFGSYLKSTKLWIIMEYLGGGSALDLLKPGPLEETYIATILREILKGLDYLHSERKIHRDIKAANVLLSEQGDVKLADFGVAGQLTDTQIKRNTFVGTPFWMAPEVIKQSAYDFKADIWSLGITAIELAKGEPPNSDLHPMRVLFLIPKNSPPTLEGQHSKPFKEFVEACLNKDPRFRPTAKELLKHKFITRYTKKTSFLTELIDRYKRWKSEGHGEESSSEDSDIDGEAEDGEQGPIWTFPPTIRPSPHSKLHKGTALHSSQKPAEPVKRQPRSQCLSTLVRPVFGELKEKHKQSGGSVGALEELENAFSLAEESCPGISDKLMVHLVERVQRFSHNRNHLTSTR
Turning to `Cn1nc2c3c(cccc31)C(=O)c1ccccc1-2`, the residual activity is 96.5%.
On to `COc1ccc(OC)c2c(=S)c3ccccc3[nH]c12`, for which the residual activity stood at 96.2%.
With `O=C1NC(=O)/C(=C\c2ccc3nccnc3c2)S1`, the residual activity amounted to 99.3%.

Another assay concerns the target PRKCI (human) (UniProt P41743). The description is as above. The following applies: compound 0.5 µM; ATP 10 µM.
Consider `Cn1nc2c3c(cccc31)C(=O)c1ccccc1-2`, for which the residual activity amounted to 98.5%.
For `COc1ccc(OC)c2c(=S)c3ccccc3[nH]c12`, the residual activity was 99.3%.
Regarding `O=C1NC(=O)/C(=C\c2ccc3nccnc3c2)S1`, the residual activity is 98.6%.

A further assay addresses NEK3 (human) (UniProt P51956). The assay is described as above. The following applies: compound 0.5 µM; ATP 10 µM.
Take `Cn1nc2c3c(cccc31)C(=O)c1ccccc1-2`: the residual activity turned out to be 96.7%.
On the same count and under the same terms, in the case of `COc1ccc(OC)c2c(=S)c3ccccc3[nH]c12` it was 107%; in that of `O=C1NC(=O)/C(=C\c2ccc3nccnc3c2)S1`, 97.3%.

Another assay addresses TSSK2 (human) (UniProt Q96PF2). Described as above. The following applies: compound 0.5 µM; ATP 10 µM.
For the compound `Cn1nc2c3c(cccc31)C(=O)c1ccccc1-2`, the residual activity was found to be 95.4%.
In the case of `COc1ccc(OC)c2c(=S)c3ccccc3[nH]c12`, the residual activity was 108%.
Consider `O=C1NC(=O)/C(=C\c2ccc3nccnc3c2)S1`, for which the residual activity is 88.7%.

For another assay, the target named is MAP3K11 (human) (UniProt Q16584). The assay is described as above. The following applies: compound 0.5 µM; ATP 10 µM.
Turning to `Cn1nc2c3c(cccc31)C(=O)c1ccccc1-2`, the residual activity stood at 97.2%.
As to `COc1ccc(OC)c2c(=S)c3ccccc3[nH]c12`, the residual activity worked out at 107%.
For the compound `O=C1NC(=O)/C(=C\c2ccc3nccnc3c2)S1`, the residual activity was determined as 97.5%.

The target in another assay is HIPK1 (human) (UniProt Q86Z02). Described as above. The following applies: compound 0.5 µM; ATP 10 µM.
Chain of HIPK1 (human) (Q86Z02 whole entry, looked up): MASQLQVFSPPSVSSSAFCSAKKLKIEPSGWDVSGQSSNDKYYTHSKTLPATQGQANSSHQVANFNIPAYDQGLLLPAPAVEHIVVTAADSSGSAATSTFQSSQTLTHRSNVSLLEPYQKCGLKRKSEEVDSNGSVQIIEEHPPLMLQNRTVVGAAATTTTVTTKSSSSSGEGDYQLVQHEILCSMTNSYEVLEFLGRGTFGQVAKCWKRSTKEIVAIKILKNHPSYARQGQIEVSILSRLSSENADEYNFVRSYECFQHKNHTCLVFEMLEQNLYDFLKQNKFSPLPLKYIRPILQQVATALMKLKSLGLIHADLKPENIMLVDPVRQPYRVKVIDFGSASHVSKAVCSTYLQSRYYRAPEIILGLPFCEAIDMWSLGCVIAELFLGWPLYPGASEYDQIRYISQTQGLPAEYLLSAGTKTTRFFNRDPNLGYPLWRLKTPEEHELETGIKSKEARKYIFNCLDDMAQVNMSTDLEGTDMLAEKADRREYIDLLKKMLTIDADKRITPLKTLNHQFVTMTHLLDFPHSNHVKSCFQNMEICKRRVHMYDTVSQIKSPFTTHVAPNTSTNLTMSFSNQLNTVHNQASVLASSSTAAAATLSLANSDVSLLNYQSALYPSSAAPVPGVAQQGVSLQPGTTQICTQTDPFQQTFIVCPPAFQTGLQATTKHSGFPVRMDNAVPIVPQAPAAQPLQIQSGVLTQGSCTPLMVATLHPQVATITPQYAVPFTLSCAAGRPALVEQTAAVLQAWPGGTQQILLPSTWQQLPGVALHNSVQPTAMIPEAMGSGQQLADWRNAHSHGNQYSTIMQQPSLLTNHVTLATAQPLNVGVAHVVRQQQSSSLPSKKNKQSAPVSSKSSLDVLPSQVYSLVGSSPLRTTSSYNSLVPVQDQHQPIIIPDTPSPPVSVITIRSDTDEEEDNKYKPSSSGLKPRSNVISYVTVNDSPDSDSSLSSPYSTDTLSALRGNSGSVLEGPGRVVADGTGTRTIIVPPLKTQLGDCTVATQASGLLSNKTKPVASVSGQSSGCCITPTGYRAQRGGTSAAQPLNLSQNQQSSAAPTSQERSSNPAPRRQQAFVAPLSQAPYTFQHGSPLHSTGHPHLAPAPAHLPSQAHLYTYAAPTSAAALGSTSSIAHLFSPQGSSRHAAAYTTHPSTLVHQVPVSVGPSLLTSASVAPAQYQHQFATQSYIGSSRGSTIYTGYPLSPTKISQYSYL
Consider `Cn1nc2c3c(cccc31)C(=O)c1ccccc1-2`, for which the residual activity turned out to be 112%.
Regarding `COc1ccc(OC)c2c(=S)c3ccccc3[nH]c12`, the residual activity came out at 107%.
In the case of `O=C1NC(=O)/C(=C\c2ccc3nccnc3c2)S1`, the residual activity came out at 104%.

A further assay deals with SLK (human) (UniProt Q9H2G2). Described as above. The following applies: compound 0.5 µM; ATP 10 µM.
Chain of SLK (human) (Q9H2G2 whole entry, looked up): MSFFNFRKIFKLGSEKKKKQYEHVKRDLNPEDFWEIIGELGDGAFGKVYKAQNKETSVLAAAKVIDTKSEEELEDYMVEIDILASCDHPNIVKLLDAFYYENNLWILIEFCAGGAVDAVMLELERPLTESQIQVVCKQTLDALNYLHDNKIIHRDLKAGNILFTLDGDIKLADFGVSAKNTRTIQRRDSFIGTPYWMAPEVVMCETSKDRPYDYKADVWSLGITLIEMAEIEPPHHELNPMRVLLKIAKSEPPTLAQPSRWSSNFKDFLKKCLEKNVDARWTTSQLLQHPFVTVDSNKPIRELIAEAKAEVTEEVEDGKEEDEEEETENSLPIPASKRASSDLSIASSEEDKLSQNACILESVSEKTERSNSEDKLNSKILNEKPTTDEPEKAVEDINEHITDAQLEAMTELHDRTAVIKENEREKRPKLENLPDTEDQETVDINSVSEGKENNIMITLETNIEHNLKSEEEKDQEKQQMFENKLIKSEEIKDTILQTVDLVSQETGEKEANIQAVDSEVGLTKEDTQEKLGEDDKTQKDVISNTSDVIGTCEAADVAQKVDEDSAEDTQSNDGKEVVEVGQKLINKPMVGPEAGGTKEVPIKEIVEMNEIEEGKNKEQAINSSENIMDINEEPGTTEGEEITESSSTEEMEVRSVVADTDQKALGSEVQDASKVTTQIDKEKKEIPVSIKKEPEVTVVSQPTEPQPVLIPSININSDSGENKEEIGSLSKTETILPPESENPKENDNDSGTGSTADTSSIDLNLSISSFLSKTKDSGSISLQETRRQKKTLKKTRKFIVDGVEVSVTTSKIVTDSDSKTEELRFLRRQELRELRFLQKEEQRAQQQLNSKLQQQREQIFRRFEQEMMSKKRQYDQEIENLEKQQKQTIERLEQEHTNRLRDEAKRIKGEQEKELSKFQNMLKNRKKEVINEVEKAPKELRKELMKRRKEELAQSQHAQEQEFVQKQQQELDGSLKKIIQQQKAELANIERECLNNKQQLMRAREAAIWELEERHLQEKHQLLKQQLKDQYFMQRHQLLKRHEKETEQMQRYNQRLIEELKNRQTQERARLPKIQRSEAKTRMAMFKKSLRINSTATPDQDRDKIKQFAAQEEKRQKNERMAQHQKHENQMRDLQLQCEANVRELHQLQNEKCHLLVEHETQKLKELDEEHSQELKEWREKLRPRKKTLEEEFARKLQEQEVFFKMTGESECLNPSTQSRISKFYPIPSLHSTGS
Regarding `Cn1nc2c3c(cccc31)C(=O)c1ccccc1-2`, the residual activity was found to be 103%.
As for `COc1ccc(OC)c2c(=S)c3ccccc3[nH]c12`, the residual activity was determined as 80.2%.
The same measure, in the same setting: next, `O=C1NC(=O)/C(=C\c2ccc3nccnc3c2)S1`: 96.3%.

The target of another assay is DYRK2 (human) (UniProt Q92630). The assay is described as above. The following applies: compound 0.5 µM; ATP 10 µM.
Consider `Cn1nc2c3c(cccc31)C(=O)c1ccccc1-2`, for which the residual activity was 99.4%.
Same read-out and setting: next, `COc1ccc(OC)c2c(=S)c3ccccc3[nH]c12`: 96.8%.
With `O=C1NC(=O)/C(=C\c2ccc3nccnc3c2)S1`, the residual activity came out at 39.8%.

For a further assay, the target named is HIPK3 (human) (UniProt Q9H422). The assay is described as above. The following applies: compound 0.5 µM; ATP 10 µM.
With `Cn1nc2c3c(cccc31)C(=O)c1ccccc1-2`, the residual activity was 113%.
For the compound `COc1ccc(OC)c2c(=S)c3ccccc3[nH]c12`, the residual activity is 101%.
On the same count and under the same terms, next, `O=C1NC(=O)/C(=C\c2ccc3nccnc3c2)S1`: 92.4%.

The target in a further assay is PHKG1 (human) (UniProt Q16816). Described as above. The following applies: compound 0.5 µM; ATP 10 µM.
`Cn1nc2c3c(cccc31)C(=O)c1ccccc1-2`: the residual activity amounted to 86.4%.
Regarding `COc1ccc(OC)c2c(=S)c3ccccc3[nH]c12`, the residual activity turned out to be 83%.
On to `O=C1NC(=O)/C(=C\c2ccc3nccnc3c2)S1`, for which the residual activity is 91.3%.

A further assay deals with ACVR1 (human) (UniProt Q04771). Described as above. The following applies: compound 0.5 µM; ATP 10 µM.
Chain of ACVR1 (human) (Q04771 whole entry, looked up): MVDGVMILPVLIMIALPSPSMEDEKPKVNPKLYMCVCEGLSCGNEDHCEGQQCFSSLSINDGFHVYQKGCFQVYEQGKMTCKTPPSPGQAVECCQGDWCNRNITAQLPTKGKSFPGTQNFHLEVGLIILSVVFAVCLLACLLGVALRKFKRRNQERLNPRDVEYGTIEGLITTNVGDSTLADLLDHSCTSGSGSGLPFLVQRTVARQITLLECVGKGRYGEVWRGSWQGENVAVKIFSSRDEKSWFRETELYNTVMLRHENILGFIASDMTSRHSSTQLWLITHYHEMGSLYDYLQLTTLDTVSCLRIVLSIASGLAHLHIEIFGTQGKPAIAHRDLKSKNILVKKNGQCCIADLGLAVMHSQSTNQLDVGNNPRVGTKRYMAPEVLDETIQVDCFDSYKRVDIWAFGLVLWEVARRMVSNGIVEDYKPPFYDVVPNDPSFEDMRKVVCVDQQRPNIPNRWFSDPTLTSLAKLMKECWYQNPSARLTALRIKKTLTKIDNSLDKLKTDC
Consider `Cn1nc2c3c(cccc31)C(=O)c1ccccc1-2`, for which the residual activity turned out to be 110%.
The same measure, in the same setting: next, `COc1ccc(OC)c2c(=S)c3ccccc3[nH]c12`: 99.2%; `O=C1NC(=O)/C(=C\c2ccc3nccnc3c2)S1`: 102%.

The target of another assay is DYRK1A (human) (UniProt Q13627). The description is as above. The following applies: compound 0.5 µM; ATP 10 µM.
Turning to `Cn1nc2c3c(cccc31)C(=O)c1ccccc1-2`, the residual activity is 94.1%.
As for `COc1ccc(OC)c2c(=S)c3ccccc3[nH]c12`, the residual activity is 103%.
Take `O=C1NC(=O)/C(=C\c2ccc3nccnc3c2)S1`: the residual activity stood at 21.8%.

Another assay addresses ERBB2 (human) (UniProt P04626). The description is as above. The following applies: compound 0.5 µM; ATP 10 µM.
On to `Cn1nc2c3c(cccc31)C(=O)c1ccccc1-2`, for which the residual activity came to 96.9%.
With `COc1ccc(OC)c2c(=S)c3ccccc3[nH]c12`, the residual activity came out at 93.6%.
With `O=C1NC(=O)/C(=C\c2ccc3nccnc3c2)S1`, the residual activity stood at 107%.

Another assay has as its target MAPK14 (human) (UniProt Q16539). The assay is described as above. The following applies: compound 0.5 µM; ATP 10 µM.
In the case of `Cn1nc2c3c(cccc31)C(=O)c1ccccc1-2`, the residual activity was found to be 93.6%.
On to `COc1ccc(OC)c2c(=S)c3ccccc3[nH]c12`, for which the residual activity stood at 104%.
Same read-out and setting: next, `O=C1NC(=O)/C(=C\c2ccc3nccnc3c2)S1`: 92.9%.

The target of the next assay is MATK (human) (UniProt P42679). The assay is described as above. The following applies: compound 0.5 µM; ATP 10 µM.
With `Cn1nc2c3c(cccc31)C(=O)c1ccccc1-2`, the residual activity is 88%.
As for `COc1ccc(OC)c2c(=S)c3ccccc3[nH]c12`, the residual activity was found to be 89.5%.
In the case of `O=C1NC(=O)/C(=C\c2ccc3nccnc3c2)S1`, the residual activity is 90.5%.

In the next assay the target is FLT1 (human) (UniProt P17948). Described as above. The following applies: compound 0.5 µM; ATP 10 µM.
On to `Cn1nc2c3c(cccc31)C(=O)c1ccccc1-2`, for which the residual activity stood at 84.3%.
The same measure, in the same setting: next, `COc1ccc(OC)c2c(=S)c3ccccc3[nH]c12`: 101%; `O=C1NC(=O)/C(=C\c2ccc3nccnc3c2)S1`: 87.5%.

The target in a further assay is TEK (human) (UniProt Q02763). Described as above. The following applies: compound 0.5 µM; ATP 10 µM.
In the case of `Cn1nc2c3c(cccc31)C(=O)c1ccccc1-2`, the residual activity is 98.2%.
Regarding `COc1ccc(OC)c2c(=S)c3ccccc3[nH]c12`, the residual activity turned out to be 100%.
Turning to `O=C1NC(=O)/C(=C\c2ccc3nccnc3c2)S1`, the residual activity amounted to 89.5%.

The target in a further assay is BRSK2 (human) (UniProt Q8IWQ3). The description is as above. The following applies: compound 0.5 µM; ATP 10 µM.
For `Cn1nc2c3c(cccc31)C(=O)c1ccccc1-2`, the residual activity came to 96.4%.
`COc1ccc(OC)c2c(=S)c3ccccc3[nH]c12`: the residual activity was 92.5%.
Regarding `O=C1NC(=O)/C(=C\c2ccc3nccnc3c2)S1`, the residual activity amounted to 90.9%.
